# Assay results from BindingDB's records for doi:10.1016/j.bmcl.2009.09.018 (Sun Yat-Sen University, 2009).
# Target: T1, Polyphenol oxidase 2 (Agaricus bisporus, UniProt O42713)
# T1 sequence (O42713 whole entry): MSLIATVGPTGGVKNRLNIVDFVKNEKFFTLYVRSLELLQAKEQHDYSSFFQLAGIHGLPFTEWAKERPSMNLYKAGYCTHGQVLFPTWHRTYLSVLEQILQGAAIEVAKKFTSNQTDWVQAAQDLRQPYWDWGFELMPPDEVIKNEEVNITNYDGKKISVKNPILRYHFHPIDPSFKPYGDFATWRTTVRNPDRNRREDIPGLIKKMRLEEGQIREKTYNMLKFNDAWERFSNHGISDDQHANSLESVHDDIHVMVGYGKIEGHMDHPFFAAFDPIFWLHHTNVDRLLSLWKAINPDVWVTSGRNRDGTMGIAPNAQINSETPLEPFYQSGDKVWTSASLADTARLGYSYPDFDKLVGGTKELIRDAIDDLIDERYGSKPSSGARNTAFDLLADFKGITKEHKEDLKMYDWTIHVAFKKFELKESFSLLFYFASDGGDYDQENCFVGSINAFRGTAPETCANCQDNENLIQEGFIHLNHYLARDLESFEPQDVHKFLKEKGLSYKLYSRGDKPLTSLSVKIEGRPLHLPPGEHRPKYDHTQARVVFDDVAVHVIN
# Test: Inhibition of mushroom tyrosinase
row,Structure (SMILES),IC50 [µM]
1,CC(=O)OC[C@H]1O[C@@H](Oc2ccc(CN=O)cc2)[C@H](OC(C)=O)[C@@H](OC(C)=O)[C@@H]1OC(C)=O,> 200
2,O=NCc1ccc(O[C@@H]2O[C@H](CO)[C@@H](O)[C@H](O)[C@H]2O)cc1,> 200
3,"CC(=O)OC[C@H]1O[C@@H](Oc2ccc(CN=O)cc2)[C@H](OC(C)=O)[C@H](OC(C)=O)[C@@H]1OC(C)=O [(2R,3R,4R,5R,6S)-2-(acetoxymethyl)-6-(4-((hydroxyimino)methyl)phenoxy)tetrahydro-2H-pyran-3,4,5-triyl triacetate]",> 200
4,"CC(=O)OC[C@H]1O[C@@H](Oc2ccc(CN=O)cc2)[C@H](OC(C)=O)[C@@H](OC(C)=O)[C@H]1OC(C)=O [(2R,3S,4S,5R,6S)-2-(acetoxymethyl)-6-(4-((hydroxyimino)methyl)phenoxy)tetrahydro-2H-pyran-3,4,5-triyl triacetate]",> 200
5,"CC(=O)OC[C@H]1O[C@@H](O[C@H]2[C@H](OC(C)=O)[C@@H](OC(C)=O)[C@H](Oc3ccc(CN=O)cc3)O[C@@H]2COC(C)=O)[C@H](OC(C)=O)[C@@H](OC(C)=O)[C@H]1OC(C)=O [(2R,3S,4S,5R,6S)-2-(acetoxymethyl)-6-((2R,3R,4S,5R,6S)-4,5-diacetoxy-2-(acetoxymethyl)-6-(4-((hydroxyimino)methyl)phenoxy)tetrahydro-2H-pyran-3-yloxy)tetrahydro-2H-pyran-3,4,5-triyl triacetate]",> 200

# Further lines, results first:
row,IC50 [µM],Structure (SMILES)
1,> 200,"O=NCc1ccc(O[C@@H]2O[C@H](CO)[C@@H](O)[C@@H](O)[C@H]2O)cc1 [4-((2S,3R,4R,5S,6R)-3,4,5-trihydroxy-6-(hydroxymethyl)tetrahydro-2H-pyran-2-yloxy)benzaldehyde oxime]"
2,> 200,"O=NCc1ccc(O[C@@H]2O[C@H](COC(=O)c3ccccc3)[C@@H](OC(=O)c3ccccc3)[C@@H](OC(=O)c3ccccc3)[C@H]2OC(=O)c2ccccc2)cc1 [(2R,3R,4R,5R,6S)-2-(benzoyloxymethyl)-6-(4-((hydroxyimino)methyl)phenoxy)tetrahydro-2H-pyran-3,4,5-triyl tribenzoate]"
3,> 200,"O=NCc1ccc(O[C@@H]2OC[C@@H](OC(=O)c3ccccc3)[C@H](OC(=O)c3ccccc3)[C@H]2OC(=O)c2ccccc2)cc1 [(2S,3R,4S,5R)-2-(4-((hydroxyimino)methyl)phenoxy)tetrahydro-2H-pyran-3,4,5-triyl tribenzoate]"
